Results on 7 molecules are retold here after BindingDB's records for patent US20250026748 (Repare Therapeutics, 2025).

For the assay, the target named is DNA polymerase theta (Homo sapiens, UniProt O75417). The assay can be described thus: Polθ ATPase Enzymatic Assay (0.5 nM Enzyme Concentration). How it is done: Following pre-incubation with inhibitors, DNA (Fork C) at 20 nM and ATP at 100 μM are added to start the reaction. Enzymatic reaction proceeds at rt for 180 min ATP consumption is measured using the ADP-Glo assay from Promega.

A word on the IC50: it is the point on the concentration scale where inhibition reaches its midpoint. High values mean weaker potency in that assay, low ones greater potency in that assay.

Chain of DNA polymerase theta (O75417 whole entry): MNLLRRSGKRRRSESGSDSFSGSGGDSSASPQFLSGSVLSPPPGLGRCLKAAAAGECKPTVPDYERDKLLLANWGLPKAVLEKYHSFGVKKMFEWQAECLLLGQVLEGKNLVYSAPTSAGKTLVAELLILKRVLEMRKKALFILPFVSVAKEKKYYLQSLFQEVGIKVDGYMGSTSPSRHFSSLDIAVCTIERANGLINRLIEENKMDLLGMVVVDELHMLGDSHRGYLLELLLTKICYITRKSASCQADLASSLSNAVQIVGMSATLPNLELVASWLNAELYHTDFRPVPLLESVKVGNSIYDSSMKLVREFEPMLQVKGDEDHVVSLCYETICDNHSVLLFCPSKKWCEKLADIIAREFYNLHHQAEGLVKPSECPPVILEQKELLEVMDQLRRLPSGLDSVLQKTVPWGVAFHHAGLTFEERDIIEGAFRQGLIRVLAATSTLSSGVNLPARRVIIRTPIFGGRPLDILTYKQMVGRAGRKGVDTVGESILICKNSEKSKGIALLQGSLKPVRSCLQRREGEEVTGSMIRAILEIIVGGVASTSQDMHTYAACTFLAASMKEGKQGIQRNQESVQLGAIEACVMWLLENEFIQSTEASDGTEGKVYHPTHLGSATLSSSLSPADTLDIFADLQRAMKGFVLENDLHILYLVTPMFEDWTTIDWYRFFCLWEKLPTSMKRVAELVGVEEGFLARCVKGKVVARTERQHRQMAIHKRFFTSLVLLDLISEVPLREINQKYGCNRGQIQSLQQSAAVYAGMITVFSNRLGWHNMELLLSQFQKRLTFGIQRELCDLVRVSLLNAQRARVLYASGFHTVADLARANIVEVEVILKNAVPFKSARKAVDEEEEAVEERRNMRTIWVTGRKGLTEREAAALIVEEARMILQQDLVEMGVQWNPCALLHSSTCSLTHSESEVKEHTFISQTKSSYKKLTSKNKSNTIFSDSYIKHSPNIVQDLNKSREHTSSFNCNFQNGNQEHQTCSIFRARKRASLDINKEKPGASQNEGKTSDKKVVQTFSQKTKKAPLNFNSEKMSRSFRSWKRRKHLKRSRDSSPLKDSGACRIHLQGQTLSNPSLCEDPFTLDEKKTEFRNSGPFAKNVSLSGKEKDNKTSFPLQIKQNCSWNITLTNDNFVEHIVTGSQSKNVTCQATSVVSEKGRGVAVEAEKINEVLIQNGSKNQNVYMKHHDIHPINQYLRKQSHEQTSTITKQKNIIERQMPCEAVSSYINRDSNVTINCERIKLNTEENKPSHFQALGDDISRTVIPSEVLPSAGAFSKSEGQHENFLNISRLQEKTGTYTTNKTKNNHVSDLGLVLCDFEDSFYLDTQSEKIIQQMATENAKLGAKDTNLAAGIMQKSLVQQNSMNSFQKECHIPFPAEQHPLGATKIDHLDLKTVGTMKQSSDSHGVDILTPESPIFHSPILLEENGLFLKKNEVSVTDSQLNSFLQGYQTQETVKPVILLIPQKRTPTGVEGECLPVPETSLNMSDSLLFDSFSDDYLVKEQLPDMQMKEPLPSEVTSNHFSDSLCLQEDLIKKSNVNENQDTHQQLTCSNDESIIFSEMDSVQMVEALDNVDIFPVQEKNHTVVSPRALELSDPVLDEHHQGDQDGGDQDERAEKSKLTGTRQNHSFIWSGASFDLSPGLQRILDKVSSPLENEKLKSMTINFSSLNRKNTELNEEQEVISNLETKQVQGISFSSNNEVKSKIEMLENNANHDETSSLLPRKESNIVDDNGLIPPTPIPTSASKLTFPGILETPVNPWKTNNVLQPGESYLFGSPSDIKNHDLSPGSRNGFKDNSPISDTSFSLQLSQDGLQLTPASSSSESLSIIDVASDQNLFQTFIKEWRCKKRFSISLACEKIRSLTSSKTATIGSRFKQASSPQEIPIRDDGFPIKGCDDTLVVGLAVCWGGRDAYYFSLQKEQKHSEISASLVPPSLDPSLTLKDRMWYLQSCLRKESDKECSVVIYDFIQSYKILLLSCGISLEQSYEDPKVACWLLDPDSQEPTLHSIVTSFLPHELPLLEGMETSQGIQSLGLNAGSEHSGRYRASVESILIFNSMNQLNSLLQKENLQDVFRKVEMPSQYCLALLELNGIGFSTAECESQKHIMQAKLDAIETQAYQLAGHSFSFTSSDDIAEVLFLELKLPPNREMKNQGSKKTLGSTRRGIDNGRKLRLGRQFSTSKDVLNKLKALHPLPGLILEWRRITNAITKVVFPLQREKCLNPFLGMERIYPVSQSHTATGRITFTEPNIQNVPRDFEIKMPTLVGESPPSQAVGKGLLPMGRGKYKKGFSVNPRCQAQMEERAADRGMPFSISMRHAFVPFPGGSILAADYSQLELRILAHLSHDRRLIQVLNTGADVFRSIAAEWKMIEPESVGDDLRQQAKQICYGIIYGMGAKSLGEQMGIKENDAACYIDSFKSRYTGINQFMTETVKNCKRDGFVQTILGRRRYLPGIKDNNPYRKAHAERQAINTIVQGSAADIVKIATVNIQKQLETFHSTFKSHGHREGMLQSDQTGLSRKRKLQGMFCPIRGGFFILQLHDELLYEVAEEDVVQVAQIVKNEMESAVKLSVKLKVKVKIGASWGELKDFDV

With `COc1cnc(Cl)cc1-c1cnccc1C(=O)Nc1ncc(C#CC2CC2)s1` [US20250026748, Compound 38], 1.1 nM corresponded to half-maximal inhibition (IC50).

Molecule `COc1cnc(C(F)F)cc1-c1cc(-c2ccn(C)n2)ncc1C(=O)Nc1nnc(C#Cc2cc(C)[nH]n2)s1` [US20250026748, Compound 370] showed an IC50 of 2.9 nM.

`COc1ccc(Cl)cc1-c1cnccc1C(=O)Nc1nnc(C#CC2CC2)s1` [US20250026748, Compound 57]: half-maximal inhibition (IC50) required 0.37 nM.

Molecule `COc1cnc(Cl)cc1-c1cc(-c2nnc(C)o2)ccc1C(=O)Nc1nnc(C#CC2CC2)s1` [US20250026748, Compound 305] showed an IC50 of 0.38 nM.

Molecule `COc1cnc(C(F)F)cc1-c1nc(-c2ccn(C)n2)cnc1C(=O)Nc1nnc(C#CC2CC2)s1` [US20250026748, Compound 140] returned an IC50 of 38 nM.

Regarding `COc1ccc(C(F)(F)F)cc1-c1cn(C)c(=O)cc1C(=O)Nc1nnc(C#CC2CCOC2)s1` (configuration not stated) [US20250026748, Compound 340], 12 nM corresponded to half-maximal inhibition (IC50).

For the molecule `COc1ccc(Cl)cc1-c1cn(Cc2nccs2)c(=O)cc1C(=O)Nc1nnc(C#CC2CC2)s1` [US20250026748, Compound 63], half-maximal inhibition (IC50) was put at 1.9 nM.
